Substitutions are numbered along the chain they refer to. “Also recorded” adds a separate entry of the source.

Consider one compound from paper PMC10531759, “Key Amino Acid Residues Involved in Binding Interactions between Bactrocera minax Odorant-Binding Protein 3 (BminOBP3) and Undecanol” (Insects, 2023).

Experiment [1] deals with T1, BminOBP3 (wild-type protein) (Bactrocera minax, UniProt A0A3G2LEF2).
T1 sequence (A0A3G2LEF2 27-115): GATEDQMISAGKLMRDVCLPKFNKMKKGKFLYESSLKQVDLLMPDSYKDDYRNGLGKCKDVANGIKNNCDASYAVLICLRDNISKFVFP
As to the kind of experiment: Fluorescence competitive binding assay (1-NPN displacement by undecanol), wild-type protein. The conditions noted are these: pH 5.0 compared with pH 7.4; Figure S8 and Table S3. The protocol: (§1) In order to explore the binding affinities of BminOBP3 and its mutants to undecanol, the binding assays were conducted on a fluorescence spectrophotometer (F-7000; Hitachi, Japan) with parameters set same as the previous study. The fluorescent probe 1-NPN and undecanol were diluted in the HPLC methanol to 1 mM, whereas the protein samples were dissolved in 20 mM Tris-HCL pH 7.4 to obtain 2 μM protein solutions.
(§2) To measure the dissociation constant (Kd) of 1-NPN to BminOBP3 and mutants, aliquots of 1 mM 1-NPN were added to the 2 μM protein solution with a final concentration of 1-NPN ranging from 0 to 22 μM, and the resulting fluorescence intensity values of the maximum fluorescence emission were recorded for the construction of binding curves and Scatchard plots. Bound 1-NPN was determined by fluorescence intensities with the assumption that the protein was 100% active, and it binds the ligands at a 1:1 stoichiometric ratio when saturated. […] The maximal fluorescence intensity values were plotted against undecanol concentrations. The inhibition constant (Ki) of each protein was calculated based on the following equation: Ki = [IC50]/(1 + [1-NPN]/K1-NPN). IC50 is the concentration of ligand halving initial fluorescence intensity; [1-NPN] is the free concentration of 1-NPN; and K1-NPN is the dissociation constant of the protein/1-NPN complex. […]

For experiment [2], the target named is T2, T-OBP3 (mutant that lacks I116-P122 from the C-terminus of BminOBP3) (Bactrocera minax, UniProt A0A3G2LEF2).
T2 sequence (A0A3G2LEF2 27-108): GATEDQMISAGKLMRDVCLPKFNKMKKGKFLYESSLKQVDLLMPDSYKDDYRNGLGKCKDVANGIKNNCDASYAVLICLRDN
Nature of the experiment: Fluorescence competitive binding assay (1-NPN displacement by undecanol), C-terminus truncated mutant. The conditions noted are these: compared with wild-type protein. The protocol:
as §1, §2

Experiment [3] deals with T3, V120A (BminOBP3-V120A mutant) (Bactrocera minax, UniProt A0A3G2LEF2, V113A).
T3 sequence (A0A3G2LEF2 27-115 V113A): T1 sequence (A0A3G2LEF2 27-115) with V87A
As to the kind of experiment: Fluorescence competitive binding assay (1-NPN displacement by undecanol), V120A mutant. The following applies: undecanol up to 36 μM. On the procedure:
as §1, §2

Experiment [4] deals with T4, 3D2a (mutant that lacks F121 and P122 from the C-terminus of BminOBP3) (Bactrocera minax, UniProt A0A3G2LEF2).
T4 sequence (A0A3G2LEF2 27-113): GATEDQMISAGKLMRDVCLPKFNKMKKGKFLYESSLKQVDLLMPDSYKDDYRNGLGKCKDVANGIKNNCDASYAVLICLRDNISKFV
Nature of the experiment: Fluorescence competitive binding assay (1-NPN displacement by undecanol), 3D2a mutant. The following applies: undecanol up to 36 μM. The protocol: as §1, §2

Experiment [5] concerns T57A (BminOBP3-T57A mutant). As to the kind of experiment: Fluorescence binding assay with undecanol, T57A mutant. Further details: species or system Bactrocera minax. The following applies: Figure S7 and Table S2. The protocol: as §1
as §2, with “[1-NPN]/K1-NPN).” for “[1-NPN]/K1-NPN). IC50 is the concentration of ligand halving initial fluorescence intensity; [1-NPN] is the free concentration of 1-NPN; and K1-NPN is the dissociation constant of the protein/1-NPN complex.”
(§3) (the information regarding 13 ligands see Supplemental Data Table S4). […] Conformation 3 was an effective conformation, which is shown in Figure 2A, as it was validated by subsequent mutagenesis studies and fluorescence binding assays. […]

The subject of experiment [6] is Y84A (BminOBP3-Y84A mutant). As to the kind of experiment: Fluorescence binding assay with undecanol, Y84A mutant. More on the design: species or system Bactrocera minax. The conditions noted are these: Figure S7 and Table S2. On the procedure: as §1
as §2, with “[1-NPN]/K1-NPN).” for “[1-NPN]/K1-NPN). IC50 is the concentration of ligand halving initial fluorescence intensity; [1-NPN] is the free concentration of 1-NPN; and K1-NPN is the dissociation constant of the protein/1-NPN complex.”
as §3

Experiment [7] deals with T1, BminOBP3 (wild-type protein). Further details: method as in PMID 34668560. The following applies: competitive fluorescence binding experiments of previous study; cited from earlier work.

Turning to `CCCCCCCCCCCO` [undecanol, 1-undecanol], the “affinity between BminOBP3 and undecanol at acidic pH (in words)” value in experiment [1] is recorded as “significant decrease”. Moreover, the “affinity for undecanol compared with BminOBP3 (in words)” value in experiment [2] is given as “significant decrease”. Moreover, the “binding to undecanol (in words)” value in experiment [3] and in experiment [4] was “completely abolished; also recorded: completely lost their binding capacity” throughout. Besides, the “affinity to undecanol compared with the wild-type protein (in words)” value in experiment [5] and in experiment [6] was “obvious increase” throughout. In addition, the “binding affinity of BminOBP3 among 13 ligands tested (in words)” value in experiment [7] is “strong binding affinity”.
